Patent US12282021B2, “Stratification of acute myeloid leukaemia patients for sensitivity to kinase pathway inhibitor therapy” (KINOMICA LIMITED, priority 2017, dated 2025)

System: AML primary cells
Assay: Viability assay: ex-vivo drug testing of AML primary cells with kinase inhibitors (Guava ViaCount, 72h)
Assay type: cell-based, human
Conditions: for AML cases whose viability was reduced by >50% relative to DMSO control / number of AML cases whose viability was reduced by >50% relative to DMSO control / sensitivity of M4-Like and CDs+ cases versus M1-Like and CDs− cases (cell viability): 72h; for AML cases whose viability was reduced by >50% relative to DMSO control / number of AML cases whose viability was reduced by >50% relative to DMSO control: ex vivo; for sensitivity of M4-Like and CDs+ cases versus M1-Like and CDs− cases (cell viability): 1 μM PAKi, 10 μM FLT3/PKCi (FIG. 5A-B)
Method: The study was performed in 36 randomly selected primary samples of mononuclear cells extracted from the peripheral blood of AML patients at diagnosis. Experiments were performed as described below to determine the in vitro viability of the cells in response to treatment with inhibitors of the kinases FLT3/PKC (midostaurin, FLT3/PKCi), PAK (PF-3758309 PAKi), CK2 (silmitasertib CK2i) and MEK (trametinib, MEKi) The P38 inhibitor (P38i) TAK-715 was included as a negative control. Cells obtained from of 36 AML patients with well annotated clinical data were treated with these compounds for 72h.
The study was performed in 36 primary samples of mononuclear cells extracted from the peripheral blood of AML patients at diagnosis. Samples were randomly selected from the BCI tissue bank collection. Initially, 45 samples were included in the study but nine were later excluded because these were not viable in the ex-vivo experiments. Material availability allowed proteomics and mass cytometry analysis of 30 samples and DNA sequencing of 27 samples. Ex-vivo drug testing was performed in quadruplicate sampling replicates and viability values averaged and expressed relative to vehicle control.
Ex-vivo drug testing of AML primary cells was as previously described in Casado P, Rodriguez-Prados J C, Cosulich S C, et al. Kinase-substrate enrichment analysis provides insights into the heterogeneity of signaling pathway activation in leukemia cells. Sci Signal. 2013; 6(268):rs6. Briefly, cells were re-suspended in MS-5 conditioned IMDM medium, seeded in 96 well plates and treated with vehicle or 1 to 10000 nM of the indicated inhibitors for 72h. Cells were stained with Guava ViaCount reagent and cell number and viability was measured. Flow cytometry data were analyzed using CytoSoft (v2.5.7).
Mass cytometry was used to simultaneously measure the surface expression of 17 differentiation markers (CD3, CD7, CD11b, CD14, CD15, CD16, CD19, CD33, CD34, CD38, CD44, CD45, CD64, CD117, CD123, CD184, HLA-DR) in mononuclear cells extracted from the peripheral blood of 30 AML patients. Label free quantitative phosphoproteomics based on TiO2 phosphoenrichment was used to quantify>5,000 phosphorylation sites in the same AML primary samples and KSEA technology was applied to infer kinase activity from the phosphoproteomics data. Gene ontology enrichment was calculated based on the genes that code for the proteins where the phosphorylation sites were detected using DAVID software. Guava EasyCyte Flow Cytometry was used to determine cell viability after the treatment of the same patient samples with 5 kinase inhibitors (PF-3758309, Midostaurin, silmitasertib, trametinib and TAK715 aiming to target the kinases PAK, Flt-3, Casein Kinase 2, MEK and P38, respectively).

[1] = 15 cases positive for RAS/MEK/ERK activation

| SMILES | AML cases whose viability was reduced by >50% relative to DMSO control (1 μM dose, 36 AML cases) | number of AML cases whose viability was reduced by >50% relative to DMSO control (1 μM dose, 36 AML cases) | sensitivity of M4-Like and CDs+ cases versus M1-Like and CDs− cases (cell viability) | effect of FLT3-ITD status on the responses of cells (FIG. 7F and FIG. 14B) | sensitivity of samples positive for either CDs or phosphorylation on GSK3A or PCKδ versus other cases (FIG. 7F and FIG. 14B) | potency relative to the other compounds tested (1 μM dose, 36 AML cases) | cases positive for RAS/MEK/ERK activation that showed high responses [1] | number of cases positive for RAS/MEK/ERK activation that showed high responses [1] |
| --- | --- | --- | --- | --- | --- | --- | --- | --- |
| CO[C@@H]1[C@H](N(C)C(=O)c2ccccc2)C[C@H]2O[C@]1(C)n1c3ccccc3c3c4c(c5c6ccccc6n2c5c31)C(=O)NC4 [FLT3/PKCi, midostaurin] | 25% | 9/36 | more sensitive | did not have an effect | more sensitive | – | – | – |
| CCc1nc(-c2cccc(C)c2)c(-c2ccnc(NC(=O)c3ccccc3)c2)s1 [P38i, TAK-715] | 8% | 3 AML cases | no differences | – | – | – | – | – |
| O=C(O)c1ccc2c(c1)nc(Nc1cccc(Cl)c1)c1ccncc12 [CK2i, silmitasertib] | 22% | 8/36 | – | – | – | – | – | – |
| Cc1nc(Nc2[nH]nc3c2CN(C(=O)N[C@H](CN(C)C)c2ccccc2)C3(C)C)c2sccc2n1 [PAKi, PF-3758309] | 50% | 18/36 | more sensitive | – | – | most potent of all the compounds tested | – | – |
| CC(=O)Nc1cccc(-n2c(=O)n(C3CC3)c(=O)c3c(Nc4ccc(I)cc4F)n(C)c(=O)c(C)c32)c1 [MEKi, trametinib] | 22% | 8/36 | – | – | – | – | ~50% | 7/15 |
